According to publication PMC4847154, “Sticky swinging arm dynamics: studies of an acyl carrier protein domain from the mycolactone polyketide synthase” (Biochemical Journal, 2016):

Key:
[1] = target: T1, mACP9 (ACP domain from MLSA2, module 9 of the mycolactone PKS) (Mycobacterium ulcerans, UniProt Q6MZA5); assay: circular dichroism thermal denaturation; assay type: binding; conditions: absolute Tm
T1 construct: excised ACP domain, residues 2050-2140; N-terminal His6-tag cleaved by thrombin leaving GSHM; E. coli Tuner(DE3); monomer; Ppant attachment at Ser2096

[2] = target: T1, mACP9 (ACP domain from MLSA2, module 9 of the mycolactone PKS); assay: solution NMR structure; assay type: binding; conditions: covalent at Ser2096; nonpolar pocket between helix α2 and turns α2′ and α3′; phosphate buffer pH 7.5, 283 K

CC(C)(COP(=O)(O)O)[C@@H](O)C(=O)NCCC(=O)NCCS [holo, 4′-phosphopantetheine]
Tm ([1]; covalent at Ser2096 (holo form), 20 mM sodium hydrogen phosphate, 50 mM NaF, pH 7.5, apo reference in the same sentence): 59 °C

CCCCCCCC(=O)SCCNC(=O)CCNC(=O)[C@H](O)C(C)(C)COP(=O)(O)O [octanoyl, octanoyl-phosphopantetheine group]
solution NMR structure [2]: final ensemble for octanoyl-mACP9 were deposited in the Protein Data Bank under ID code 5HV8
Tm ([1]; covalent at Ser2096 (octanoyl-Ppant), buffer as above, apo and holo references in the same sentence): 57 °C

hexanoyl-mACP9 (hexanoyl-phosphopantetheine group)
Tm ([1]; covalent at Ser2096 (hexanoyl-Ppant), buffer as above, apo and holo references in the same sentence): 58 °C
